Source: patent publication US20090281025A1, “INHIBITION OF TUMOR GROWTH AND METASTASIS BY ATF2-DERIVED PEPTIDES” (Mount Sinai School Of Medicine of New York University, priority 2004, published 2009)
“And” between values parts separate entries of the source, which are not always exact repeats. Equal entries are not always repeated.

What was measured:
Jun2-Luc = Jun2-Luc luciferase reporter assay in SW1 cells; type: cell-based, mouse; conditions: SW1 cells expressing peptide, luciferase after 18 hours
Procedure: SW1 cells constitutively expressing the indicated ATF2 peptides were transfected with either TRE-Luc (FIG. 5A) or with Jun2-Luc (FIG. 5B), and proteins were prepared for analysis of luciferase activity after 18 hours. Analysis was performed in duplicate, and the data reflect three independent experiments. SW1 cells expressing the ATF2 peptides were analyzed to establish the degree of spontaneous (basal) apoptosis as well as apoptosis 24 hours following treatment with the chemotherapeutic drug UCN-01 (FIG. 5C). The data represent triplicate analysis reproduced three times.
Alteration of ATF2 Transcriptional Activity. Assessed next was whether the short peptide caused any change in transcriptional activity mediated by ATF2 and its heterodimeric partners, using the TRE and Jun2 promoter sequences linked to the Luciferase marker gene. These reporter constructs (0.3 μg) were cotransfected with the respective expression vectors into melanoma cells (5×10^5) using Lipofectamine (Invitrogen). Luciferase activity was measured using the Luciferase assay system (Promega).

SW1 tumors = experiment: cDNA microarray gene expression profiling of SW1 tumors; type: in vivo, mouse; conditions: down regulated, hybridizations #1-#4, listed as ATFp2
Source text: FIGS. 8A and 8B show gene profiling analysis of SW1 tumors expressing the ATF2^51-100 peptide. Tumors generated, in the absence or presence of a peptide, were used as source of mRNA for array analysis of 10K mouse genes (see Example 5). […] In all cases, the data represent analyses carried out 4 times from 4 different pools of tumors.
To elucidate the molecular pathways affected by expression of the ATF2^51-100 peptide, we used cDNA microarray analysis to compare the RNA expression profiles of SW1 tumors that express this peptide or a control vector (FIG. 8A). The 10k mouse Gem 2 gene set (Incyte Genomics Inc, Palo Alto, Calif.) was printed at the NCI on poly-L-lysine-coated glass using a Biorobotics TASII arrayer (Cambridge, England). All protocols for manufacturing and hybridization of microarrays are posted on the NCI web site (see, e.g., nciarray.nci.nih.gov). Approximately 20 μg of total RNA were used in the reverse transcription reaction to directly label the probe with Cy-5 dUTP or Cy-3 dUTP (Amersham). Hybridizations were performed at 65° C. for 12-18 h in a hybridization volume of 35 μL. The hybridized arrays were scanned using an Axon GenePix 4000 scanner (Union City, Calif.) and fluorescence data were collected using the GenePix software.
mRNA was prepared from a pool of 4 tumors obtained from two different experiments. In both cases, tumors were excised 2 weeks after subcutaneous injection of cells. Because the fluorescently labeled Cy dyes may incorporate into the reverse-transcribed cDNA with different efficiencies, RNA isolated from both cell types was always labeled with both combinations of Cy dyes. […] SW1 vector control cells were labeled with Cy-3 (F532) and the SW1-ATF 51-100 cells were labeled with Cy-5 (F635).

Ratio ATFp2-Cy5 vs parental control-Cy3: Hadh (hydroxyacyl-Coenzyme A dehydrogenase) (SW1 tumors; IMAGE: 368571): 0.3738 and 0.3752 and 0.5471 and 0.6286
Ratio ATFp2-Cy5 vs parental control-Cy3: Crabp1 (cellular retinoic acid binding protein I) (SW1 tumors; IMAGE: 406272): 0.3248 and 0.361 and 0.3150 and 0.3569
Ratio ATFp2-Cy5 vs parental control-Cy3: Ptk2 (PTK2 protein tyrosine kinase 2) (SW1 tumors; IMAGE: 577544): 0.3803 and 0.3817 and 0.3913 and 0.4599
Ratio ATFp2-Cy5 vs parental control-Cy3: Casp6 (caspase 6) (SW1 tumors; IMAGE: 636228): 0.3777 and 0.3791 and 0.4947 and 0.6368
Ratio ATFp2-Cy5 vs parental control-Cy3: S100a9 (S100 calcium-binding protein A9 (calgranulin B)) (SW1 tumors; IMAGE: 720190): 0.3486 and 0.3498 and 0.362 and 0.3547
Ratio ATFp2-Cy5 vs parental control-Cy3: Lgals7 (lectin galactose binding, soluble 7) (SW1 tumors; IMAGE: 1023899): 0.4381 and 0.4397 and 0.4481 and 0.4781
Substance: ATF2^51-100: amino-terminal peptide of ATF2, amino acid residue 51 to 100 (about a 50 amino acid peptide), expressed in tumor cells (MTLKFGPARNDSVIVADQTPTPTRFLKNCEEVGLFNELASPFENEFKKAS; UniProt P15336 51-100, looked up, fragment)
Jun2-Luc transcriptional activity (Jun2-Luc): efficiently inhibited
Ratio ATFp2-Cy5 vs parental control-Cy3: Mt2 (metallothionein 2) (SW1 tumors; IMAGE: 334351): 0.3874 and 0.3888 and 0.4649 and 0.5780
Ratio ATFp2-Cy5 vs parental control-Cy3: RIKEN cDNA 2900002K07 gene (SW1 tumors; IMAGE: 516935): 0.3227 and 0.3239 and 0.2740 and 0.3014
Ratio ATFp2-Cy5 vs parental control-Cy3: Ifit1 (interferon-induced protein with tetratricopeptide repeats 1) (SW1 tumors; IMAGE: 616653): 0.2354 and 0.2363 and 0.2637 and 0.3054
Ratio ATFp2-Cy5 vs parental control-Cy3: ESTs (SW1 tumors; IMAGE: 619632): 0.4707 and 0.4724 and 0.3928 and 0.6046
Ratio ATFp2-Cy5 vs parental control-Cy3: Scya12 (small inducible cytokine A12) (SW1 tumors; IMAGE: 620800): 0.2911 and 0.2922 and 0.3318 and 0.4279
Ratio ATFp2-Cy5 vs parental control-Cy3: ESTs (SW1 tumors; IMAGE: 621129): 0.4938 and 0.4955 and 0.3268 and 0.3091
Ratio ATFp2-Cy5 vs parental control-Cy3: Igh-1 (immunoglobulin heavy chain 1 (serum IgG2a)) (SW1 tumors; IMAGE: 636695): 0.3565 and 0.3578 and 0.4847 and 0.6503
Ratio ATFp2-Cy5 vs parental control-Cy3: Jsp18 (ubiquitin specific protease 18) (SW1 tumors; IMAGE: 751642): 0.3213 and 0.3225 and 0.2989 and 0.2958
Ratio ATFp2-Cy5 vs parental control-Cy3: Plat (plasminogen activator, tissue) (SW1 tumors; IMAGE: 836124): 0.4074 and 0.4089 and 0.4019 and 0.5488
Ratio ATFp2-Cy5 vs parental control-Cy3: G0s2 (G0/G1 switch gene 2) (SW1 tumors; IMAGE: 864447): 0.4421 and 0.4583 and 0.383 and 0.3949
Ratio ATFp2-Cy5 vs parental control-Cy3: Xlr (X-linked lymphocyte-regulated complex) (SW1 tumors; IMAGE: 1022928): 0.1598 and 0.1572 and 0.1540 and 0.1537
Ratio ATFp2-Cy5 vs parental control-Cy3: Mus musculus, clone MGC: 19199 IMAGE: 4236882, mRNA, complete cds (SW1 tumors; IMAGE: 1037652): 0.4768 and 0.4785 and 0.4402 and 0.4792
Ratio ATFp2-Cy5 vs parental control-Cy3: Isg15 (interferon-stimulated protein (15 kDa)) (SW1 tumors; IMAGE: 1068714): 0.321 and 0.4337 and 0.4643 and 0.5141
Ratio ATFp2-Cy5 vs parental control-Cy3: Ifit3 (interferon-induced protein with tetratricopeptide repeats 3) (SW1 tumors; IMAGE: 1210036): 0.4750 and 0.4768 and 0.3824 and 0.3361
Ratio ATFp2-Cy5 vs parental control-Cy3: Ensa (endosulfine alpha) (SW1 tumors; IMAGE: 1278511): 0.4501 and 0.4517 and 0.4544 and 0.4479
Ratio ATFp2-Cy5 vs parental control-Cy3: Myo5b (myosin Vb) (SW1 tumors; IMAGE: 1378935): 0.2748 and 0.2758 and 0.2551 and 0.2439
Ratio ATFp2-Cy5 vs parental control-Cy3: Mtap6 (microtubule-associated protein 6) (SW1 tumors; IMAGE: 1430217): 0.3697 and 0.3710 and 0.5261 and 0.7243
